Reference: BindingDB's records for doi:10.1016/j.bioorg.2015.10.007 (University of Thessaly, 2015)
pIC50, pKi: −log10 of the molar value.

Legend:
Ribonuclease pancreatic = Ribonuclease pancreatic (Bos taurus, UniProt P61823); experiment: Ribonuclease Activity Assay; conditions: 30 °C
Description: (§1) The Ribonuclease Activity assay used was adapted from the procedure described by Anfinsen et al. and Slifman et al. Determination of ribonuclease activity of RNase A and EDN proceeded as follows: yeast tRNA (Sigma-Aldrich) was solubilized in 50 mM sodium phosphate, pH = 7.4, at a concentration of 60 uM. Various tRNA concentrations were used: 2 uM, 3 uM, 4 uM, 5 uM and 6 uM. The final volume of the reaction was 300 ul. tRNA solutions were incubated at 30 C for 10 min. 10 nM of enzyme final concentration from a 0.6 uM stock solution added to the reactionmixture. The reaction was stopped one minute and five minutes later in the case of RNase A and EDN respectively, by the addition of 300 ul of fresh ice-cold solution of 40 mM lanthanum nitrate, 6% v/v perchloric acid. Stopped reactions were maintained on ice for 15 min, and insoluble tRNA was removed by centrifugation at 4 C for 15 min at 14.500 rpm on a bench centrifuge. The amountof cleaved tRNA was determined from the ultraviolet absorbance at 260 nm (A260) of the supernatant fraction.

[1] = biological target: T1, Non-secretory ribonuclease (Homo sapiens, UniProt P10153); experiment: Ribonuclease Activity Assay; conditions: 30 °C
T1 sequence (P10153 whole entry): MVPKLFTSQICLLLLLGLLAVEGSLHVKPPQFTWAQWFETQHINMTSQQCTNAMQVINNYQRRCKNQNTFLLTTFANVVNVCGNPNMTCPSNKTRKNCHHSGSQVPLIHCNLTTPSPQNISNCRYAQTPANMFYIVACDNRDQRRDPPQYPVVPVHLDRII
Description: as §1

Ribonuclease pancreatic, sequence (P61823 whole entry): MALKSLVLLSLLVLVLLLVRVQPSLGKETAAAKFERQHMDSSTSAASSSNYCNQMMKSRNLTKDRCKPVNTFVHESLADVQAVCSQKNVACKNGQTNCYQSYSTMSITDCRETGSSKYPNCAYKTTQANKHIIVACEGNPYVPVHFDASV

| SMILES | pKi (Ribonuclease pancreatic) | pIC50 [1] | pKi [1] |
| --- | --- | --- | --- |
| O=c1ccn(Cc2cn([C@@H]3O[C@H](CO)[C@H](O)C3O)nn2)c(=O)[nH]1 (stereo partly drawn) [1-({1-[(2R,5R)-3,4-dihydroxy-5-(hydroxymethyl)oxolan-2-yl]-1H-1,2,3-triazol-4-yl}methyl)-1,2,3,4-tetrahydropyrimidine-2,4-dione (I)] | – | 3.75 | 3.93 |
| O=c1[nH]c(=O)n(Cc2cn([C@@H]3O[C@H](CO)[C@H](O)C3O)nn2)cc1F (stereo partly drawn) [1-({1-[(2R,5R)-3,4-dihydroxy-5-(hydroxymethyl)oxolan-2-yl]-1H-1,2,3-triazol-4-yl}methyl)-5-fluoro-1,2,3,4-tetrahydropyrimidine-2,4-dione (III)] | – | 4.20 | 4.35 |
| O=c1[nH]c(=O)n(Cc2cn([C@@H]3O[C@H](CO)[C@H](O)C3O)nn2)cc1Cl (stereo partly drawn) [5-chloro-1-({1-[(2R,5R)-3,4-dihydroxy-5-(hydroxymethyl)oxolan-2-yl]-1H-1,2,3-triazol-4-yl}methyl)-1,2,3,4-tetrahydropyrimidine-2,4-dione (II)] | – | 3.27 | 3.34 |
| O=c1[nH]c(=O)n([C@@H]2O[C@H](CO)[C@H](O)C2O)cc1F (stereo partly drawn) [1-[(2R,5R)-3,4-dihydroxy-5-(hydroxymethyl)oxolan-2-yl]-5-fluoro-1,2,3,4-tetrahydropyrimidine-2,4-dione (VI)] | – | 3.55 | 3.68 |
| Cc1cn([C@@H]2O[C@H](CO)[C@H](O)C2O)c(=O)[nH]c1=O (stereo partly drawn) [1-[(2R,5R)-3,4-dihydroxy-5-(hydroxymethyl)oxolan-2-yl]-5-methyl-1,2,3,4-tetrahydropyrimidine-2,4-dione (IV)] | – | 4.48 | 4.58 |
| O=c1[nH]c(=O)n([C@@H]2O[C@H](CO)[C@H](O)C2O)cc1Cl (stereo partly drawn) [5-chloro-1-[(2R,5R)-3,4-dihydroxy-5-(hydroxymethyl)oxolan-2-yl]-1,2,3,4-tetrahydropyrimidine-2,4-dione (V)] | – | 2.83 | 2.97 |
| Cc1cn(Cc2cn([C@@H]3C(O)[C@H](N4C=NC5C(N)=NC=NC54)O[C@@H]3CO)nn2)c(=O)[nH]c1=O (stereo partly drawn) [9-[3'-[4-[(Thymine-1-yl)methyl]-1,2,3-triazol-1-yl]-b-D-ribofuranosyl]adenine (12b)] | 4.16 | 3.25 | 3.44 |
| NC1=NC=NC2C1N=CN2[C@@H]1O[C@H](CO)[C@H](n2cc(Cn3ccc(N)nc3=O)nn2)C1O (stereo partly drawn) [9-[3'-[4-[(Cytosine-1-yl)methyl]-1,2,3-triazol-1-yl]-b-D-ribofuranosyl]adenine (11c)] | 4.01 | 4.05 | 4.24 |

Further lines, results first:

| pKi (Ribonuclease pancreatic) | pIC50 [1] | pKi [1] | SMILES |
| --- | --- | --- | --- |
| 3.97 | 3.19 | 3.37 | NC1=NC=NC2C1N=CN2[C@@H]1O[C@H](CO)[C@H](n2cc(Cn3ccc(=O)[nH]c3=O)nn2)C1O (stereo partly drawn) [9-[3'-[4-[(Uracil-1-yl)methyl]-1,2,3-triazol-1-yl]-b-D-ribofuranosyl]adenine (12a)] |
| 3.58 | – | – | Nc1ncnc2c1ncn2Cc1cn([C@@H]2C(O)[C@H](n3cc(F)c(=O)[nH]c3=O)O[C@@H]2CO)nn1 (stereo partly drawn) [1-[3'-[4-[(Adenine-9-yl)methyl]-1,2,3-triazol-1-yl]-b-D-ribofuranosyl]5-fluorouracil (5c)] |
| 3.82 | 3.42 | 3.61 | Cc1cn(Cc2cn([C@@H]3C(O)[C@H](n4cnc5c(NC(=O)c6ccccc6)ncnc54)O[C@@H]3CO)nn2)c(=O)[nH]c1=O (stereo partly drawn) [9-[3'-[4-[(Thymine-1-yl)methyl]-1,2,3-triazol-1-yl]-b-D-ribofuranosyl]N6-benzoyladenine (11b)] |
| 3.80 | – | – | Nc1ncnc2c1ncn2Cc1cn([C@@H]2C(O)[C@H](n3ccc(=O)[nH]c3=O)O[C@@H]2CO)nn1 (stereo partly drawn) [1-[3'-[4-[(Adenine-9-yl)methyl]-1,2,3-triazol-1-yl]-b-D-ribofuranosyl]uracil (5a)] |
| 4.26 | 3.39 | 3.57 | O=C(Nc1ncnc2c1ncn2[C@@H]1O[C@H](CO)[C@H](n2cc(Cn3ccc(=O)[nH]c3=O)nn2)C1O)c1ccccc1 (stereo partly drawn) [9-[3'-[4-[(Uracil-1-yl)methyl]-1,2,3-triazol-1-yl]-b-D-ribofuranosyl]N6-benzoyladenine (11a)] |
